Literature values in patent US11400098B2, “Method of treating microbial infections” (priority 2011, dated 2022).

Test system: S. epidermidis
Settings: background statement

O=C(OOC(=O)c1ccccc1)c1ccccc1 [BPO, benzoyl peroxide]
effect on growth of S. epidermidis: strongly suppresses the growth
